Experimental findings from article PMC6753678, “Fueling Open Innovation for Malaria Transmission-Blocking Drugs: Hundreds of Molecules Targeting Early Parasite Mosquito Stages” (Frontiers in Microbiology, 2019) are described below.

Data set [1] relates to P. berghei ookinete development. The conditions noted are these: for % inhibition, Replicate A / % inhibition, Replicate B: primary screen at 1 μM.
A further data set has as its system HepG2 cells. Description: HepG2 cytotoxicity assay. Particulars: for IC50: read-out: HepG2 cytotoxicity assay IC50, dose response confirmation; for Pb ODA (this manuscript) HepG2 cytoxicity: HepG2 cytotoxicity listed with the Pb ODA data set (this manuscript). The method in brief:
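Here viability after a 48 h compound incubation (37°C, humidified 5% CO2) is measured by fluorescence and expressed as percent inhibition, with doxorubicin at 50 μM and DMSO as the bounding controls.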

The test system of data set [2] is 3D7-strain P. falciparum asexual parasites. Put plainly: P. falciparum asexual growth inhibition assay (Pf GIA). The format is cell-based, Plasmodium falciparum. Particulars: dose response confirmation; read-out: Pf asexual growth inhibition assays IC50. The method in brief: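 Parasites at 0.25% parasitemia, 2% hematocrit in Albumax-supplemented RPMI were exposed to compounds in dose response for 72 h at 37°C under 5% CO2/5% O2. Viability was read as LDH activity (NBT/diaphorase, A650 after freeze-thaw). Percent inhibition was calculated against chloroquine and DMSO controls, mean of three biological replicates.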

[3] abbreviates: read-out: Pb ODA IC50, this manuscript.
The mark [4] stands for this setting: read-out: Pb Ookinete development assay IC50, dose response confirmation.
Where [5] appears, read: unified HepG2 value across the three screens.
[6] abbreviates: HepG2 values of the three screens unified.
[7] abbreviates: read-out: Pb ODA (this manuscript) IC50, P. berghei ookinete development assay, this manuscript.

Molecules are shown by their SMILES. Read-outs that look alike come from different tables or passages of the source. A value given as a limit tells only on which side of the number the result lay.

In the case of `CCCCc1ccc(-c2ccc3[nH]c(C)c(Br)c(=O)c3c2)cc1` [TCMDC-135463], the “Is compound selective in assay? Pb ODA active?” value (shortened to “Is compound selective”) in data set [1] (1: YES, 0: NO) was 0 (0: NO). Further, the “% inhibition, Replicate A” value in data set [1] is recorded as 56.53%. Further, the “% inhibition, Replicate B” value in data set [1] came to 70.28%. Moreover, the IC50 in data set [1] (setting [3]) was determined as 2.99 µM; in data set [1] (setting [4]), 3 µM; in the data set with HepG2 cells, 10 µM; in data set [2], 0.077 µM. In addition, the “Unified cytotox” value in the data set on HepG2 cells (setting [5]) was found to be 10.00 µM.
`CCCc1cc2c3c(N)nc(N)nc3ccc2n1C(CC)CC` [TCMDC-137312]: in data set [1] (1: YES, 0: NO), the “Is compound selective” value is 0 (0: NO). Besides, the “% inhibition, Replicate A” value in data set [1] is recorded as 47.03%. Also, in data set [1], the “% inhibition, Replicate B” value amounted to 71.34%. The IC50 is 0.46 µM in data set [1] (setting [3]), 0.463 µM in data set [1] (setting [4]), 0.0017 µM in the data set on HepG2 cells and under 0.0002 µM in data set [2]. For the same molecule, in the data set with HepG2 cells, the “HepG2 cytoxicity (Pb ODA, this manuscript)” value stood at 0.0017 µM. In the data set with HepG2 cells (setting [6]), this molecule displayed a Unified cytotox of 0.0017 µM.
As for `COc1cc(Nc2ccc3cc(S(=O)(=O)N4CCCCC4C)ccc3n2)cc(OC)c1OC` (centres unmarked) [TCMDC-125163], the “Is compound selective” value in data set [1] (1: YES, 0: NO) was 1 (1: YES). Further, in data set [1], the “% inhibition, Replicate A” value was 58.55%. Also, the “% inhibition, Replicate B” value in data set [1] is reported as 48.73%. Further, the IC50 in data set [1] (setting [3]) is 1.06 µM; in data set [1] (setting [4]) it was 1.06 µM; in the data set with HepG2 cells, 24.6 µM; in data set [2], 4.26 µM. In addition, in the data set with HepG2 cells (setting [5]), the “Unified cytotox” value came out at 24.55 µM.
As to `COc1ccc2nccc([C@@H](O)CN3CCC(NCCOc4cc(C(F)(F)F)ccc4F)CC3)c2c1.O=C(O)C(=O)O` [TCMDC-140658], the “Is compound selective” value in data set [1] (1: YES, 0: NO) is 0 (0: NO). Further, the “% inhibition, Replicate A” value in data set [1] is listed as 63.44%. In addition, the “% inhibition, Replicate B” value in data set [1] is on record as 46.33%. In addition, the IC50 is 3.21 µM in data set [1] (setting [3]), 3.21 µM in data set [1] (setting [4]), 0.00343 µM with HepG2 cells and 0.035 µM in data set [2]. Besides, the “HepG2 cytoxicity (Pb ODA, this manuscript)” value in the data set with HepG2 cells was found to be 0.00343 µM. The same molecule displayed a Unified cytotox with HepG2 cells (setting [6]) of 0.00343 µM.
On to `Cc1cccc2nc(-c3ccc(-c4ccc(CN5CC(C)OC(C)C5)cc4)cc3)[nH]c12.O=C(O)C(F)(F)F` (centres unmarked) [TCMDC-133823], for which, in data set [1], the “Is compound selective” value is 1 (key: 1: YES; 0: NO); the “% inhibition, Replicate A” value turned out to be 122.68%; the “% inhibition, Replicate B” value was determined as 88.91%. Further, the IC50 in data set [1] (setting [7]) was determined as 0.43 µM. In data set [1] (setting [4]), the IC50 worked out at 0.434 µM. Further, in the data set with HepG2 cells, the “Pb ODA (this manuscript) HepG2 cytoxicity” value was 15.14 µM and the IC50 amounted to 15.1 µM. For the same molecule, the IC50 in data set [2] was found to be 0.168 µM.
On to `COc1ccc2nccc([C@@H](O)CN3CCC(NCCOc4ccc(F)cc4Cl)CC3)c2c1.O=C(O)C(=O)O` [TCMDC-140660], for which the “Is compound selective” value in data set [1] (1: YES, 0: NO) was 0 (0: NO). In addition, the “% inhibition, Replicate A” value in data set [1] worked out at 30.16%. In data set [1], the “% inhibition, Replicate B” value turned out to be 50.20%. Besides, the IC50 in data set [1] (setting [3]) came out at 8.29 µM; in data set [1] (setting [4]), 8.29 µM; with HepG2 cells, 32.4 µM; in data set [2], 0.173 µM. Besides, the “HepG2 cytoxicity (Pb ODA, this manuscript)” value in the data set with HepG2 cells is recorded as 32.36 µM. Moreover, the Unified cytotox in the data set on HepG2 cells (setting [6]) is 32.36 µM.
As to `COc1ccc(CCc2ccc(-c3c(C)[nH]c(C)c(Cl)c3=O)cc2)cc1OC` [TCMDC-135789], in data set [1] (1: YES, 0: NO), the “Is compound selective” value was 1 (1: YES). Further, the “% inhibition, Replicate A” value in data set [1] amounted to 97.42%. Further, the “% inhibition, Replicate B” value in data set [1] amounted to 111.57%. Also, the IC50 is 0.28 µM in data set [1] (setting [3]), 0.277 µM in data set [1] (setting [4]), 100 µM in the data set with HepG2 cells and 0.119 µM in data set [2]. In the data set on HepG2 cells (setting [6]), this molecule had a Unified cytotox of 100.00 µM.
Consider `CCc1cc2c3c(N)nc(N)nc3ccc2n1C(C)CC` (centres unmarked) [TCMDC-137308], for which the “Is compound selective” value in data set [1] (1: YES, 0: NO) is 0 (0: NO). Further, in data set [1], the “% inhibition, Replicate A” value stood at 67.31%. Moreover, the “% inhibition, Replicate B” value in data set [1] is 61.54%. The IC50 in data set [1] (setting [3]) was 0.69 µM; in data set [1] (setting [4]), 0.694 µM; in the data set with HepG2 cells it was 0.0017 µM; in data set [2], under 0.0002 µM. In addition, in the data set with HepG2 cells, the “HepG2 cytoxicity (Pb ODA, this manuscript)” value worked out at 0.0017 µM. For the same molecule, in the data set on HepG2 cells (setting [6]), the Unified cytotox worked out at 0.0017 µM.
As for `COc1ccc2nc3cc(Cl)ccc3c(NCCO)c2c1.Cl` [TCMDC-124272], in data set [1], the “Is compound selective” value is reported as 1 (key: 1: YES; 0: NO); the “% inhibition, Replicate A” value is reported as 66.85%; the “% inhibition, Replicate B” value is 79.62%. Also, in data set [1] (setting [7]), the IC50 is 0.84 µM. Also, the IC50 in data set [1] (setting [4]) was found to be 0.843 µM. In the data set with HepG2 cells, the “Pb ODA (this manuscript) HepG2 cytoxicity” value came out at 15.67 µM and the IC50 stood at 15.7 µM. Moreover, the IC50 in data set [2] turned out to be 0.404 µM.
As for `CC(Oc1ccc(NC(=O)c2cccs2)cc1)C(=O)c1ccc(Cl)cc1` (centres unmarked) [TCMDC-125438], the “Is compound selective” value in data set [1] is on record as 1 (key: 1: YES; 0: NO). In addition, in data set [1], the “% inhibition, Replicate A” value came out at 52.47%. For the same molecule, the “% inhibition, Replicate B” value in data set [1] is 58.23%. In addition, the IC50 in data set [1] (setting [7]) was 1.01 µM; in data set [1] (setting [4]) it was 1.01 µM; in the data set on HepG2 cells it was 100 µM; in data set [2], 0.512 µM. The “Pb ODA (this manuscript) HepG2 cytoxicity” value in the data set on HepG2 cells is reported as 100.00 µM.
On to `CN1CCN(c2ccc(Nc3nccc(-c4cnn5ncccc45)n3)cc2Cl)CC1` [TCMDC-138688], for which, in data set [1] (1: YES, 0: NO), the “Is compound selective” value is recorded as 1 (1: YES). For the same molecule, in data set [1], the “% inhibition, Replicate A” value was 69.14%. Moreover, the “% inhibition, Replicate B” value in data set [1] is 64.46%. Moreover, the IC50 worked out at 1.8 µM in data set [1] (setting [3]), 1.8 µM in data set [1] (setting [4]), 46.8 µM in the data set on HepG2 cells and 0.929 µM in data set [2]. The “Unified cytotox” value in the data set with HepG2 cells (setting [5]) is listed as 46.77 µM.
Take `CN(C)S(=O)(=O)n1ncc2c3c(N)nc(N)nc3ccc21.Cl` [TCMDC-131933]: in data set [1], the “Is compound selective” value is 0 (key: 1: YES; 0: NO); the “% inhibition, Replicate A” value is given as 39.05%; the “% inhibition, Replicate B” value is 54.28%. Besides, in data set [1] (setting [7]), the IC50 came out at 0.54 µM. Moreover, the IC50 in data set [1] (setting [4]) came out at 0.539 µM. In the data set with HepG2 cells, the “Pb ODA (this manuscript) HepG2 cytoxicity” value is 0.001 µM and the half-maximal inhibitory concentration (IC50) worked out at 0.001 µM. Further, in data set [2], the IC50 was 0.023 µM.
On to `Cc1nc(C)c(-c2ccc(Oc3ccc(OC(F)(F)F)cc3)cc2)c(OC(=O)c2ccc(CN(C)C)cc2)c1Cl` [TCMDC-137382], for which, in data set [1], the “Is compound selective” value was 1 (key: 1: YES; 0: NO); the “% inhibition, Replicate A” value amounted to 93.07%; the “% inhibition, Replicate B” value was determined as 108.44%. In data set [1] (setting [7]), the IC50 amounted to 0.46 µM. Also, the half-maximal inhibitory concentration (IC50) in data set [1] (setting [4]) was 0.462 µM. For the same molecule, in the data set on HepG2 cells, the “Pb ODA (this manuscript) HepG2 cytoxicity” value was 24.55 µM and the IC50 was 24.6 µM. The IC50 in data set [2] was 0.127 µM.
As to `Cc1nc2c(c([O-])c1Cl)-c1ccc(Oc3cccc(C(F)(F)F)c3)cc1C2=O.[Na+]` [TCMDC-136021], the “Is compound selective” value in data set [1] (1: YES, 0: NO) is reported as 1 (1: YES). Further, in data set [1], the “% inhibition, Replicate A” value came to 94.15%. In addition, the “% inhibition, Replicate B” value in data set [1] was determined as 74.80%. The IC50 is 0.78 µM in data set [1] (setting [3]), 0.785 µM in data set [1] (setting [4]), 39.8 µM in the data set on HepG2 cells and 0.054 µM in data set [2]. Besides, the “Unified cytotox” value with HepG2 cells (setting [5]) worked out at 39.81 µM.
Turning to `Br.CC(CON1C(N)=NC(N)=NC1(C)C)c1ccc(Cl)cc1Cl` (centres unmarked) [TCMDC-131687], the “Is compound selective” value in data set [1] (1: YES, 0: NO) was 0 (0: NO). The “% inhibition, Replicate A” value in data set [1] amounted to 63.61%. Further, in data set [1], the “% inhibition, Replicate B” value was 60.22%. In addition, the IC50 in data set [1] (setting [3]) was found to be 2.1 µM; in data set [1] (setting [4]) it was 2.1 µM; in the data set on HepG2 cells it was 0.001 µM; in data set [2], 0.039 µM. Moreover, the “HepG2 cytoxicity (Pb ODA, this manuscript)” value in the data set with HepG2 cells was determined as 0.001 µM. The same molecule yielded a Unified cytotox in the data set with HepG2 cells (setting [6]) of 0.001 µM.

In general, IC50 refers to the concentration that inhibits the measured activity by half.
